Assays:
Assay in all cases: Qualitative test of AARS substrate specificity (molybdenum blue method)
Format in all cases: biochemical, Thermotoga maritima MSB8 strain
Parameters in all cases: key: +: Activity was detected; −: Activity was not detected
Thermotoga-derived SerRS = molecular target: T1, Thermotoga-derived SerRS (Thermotoga maritima, UniProt Q9X199); conditions: Tyr 1 mM, other amino acids 5 mM; hydroxylamine 1000 mM; SerRS 0.1 mg/ml (1 mU/ml); 30° C.
T1 construct: His tag (C); made in house; host or cells: Escherichia coli BL21 (DE3)
Procedure: (§1) A test sample containing an amino acid as the measurement subject and a reaction mixture for quantifying amino acid having the following composition were mixed. The mixture was left standing at 30° C. to allow the AARS reaction to advance. The mixture in a volume of 33 μl, 66 μl of water, and 1 μl of a 300 U/ml yeast pyrophosphatase solution were mixed, and left standing at room temperature for 20 minutes to allow the pyrophosphatase reaction to advance. Then, the reaction mixture was mixed with 100 μl of a color development solution A and 30 μl of a color developing solution B having the following compositions, then the mixture was left standing at room temperature for 5 minutes, and the absorbance was measured at 700 nm or 900 nm with a microplate reader.
(§2) Reaction mixture for quantifying amino acid: 20 mM Tris-HCl (pH 7.0), 5 mM MgCl2, 2 mM ATP, and AARS (concentrations are final concentrations obtained after mixing with test sample)
(§3) Color developing solution A: A solution obtained by mixing water and concentrated sulfuric acid at a ratio of 3:1 and dissolving (NH4)6Mo7O24.4H2O in the mixture at a concentration of 0.066 g/ml
(§4) Color developing solution B: A solution obtained by mixing water and concentrated sulfuric acid at a ratio of 10000:7 and dissolving FeSO4.7H2O in the mixture at a concentration of 145 mg/ml
(§5) Presence or absence of pyrophosphate generation was verified for the Thermotoga-derived CysRS, HisRS, LysRS, ProRS, SerRS, TrpRS, and TyrRS by using the AARS activity measurement method described in 9. and standard solutions of the various amino acids as test samples. AARSs were added to the reaction mixture at final concentrations of 0.3 (8 mU/ml), 0.1, 0.2 (3 mU/ml), 0.2, 0.1 (1 mU/ml), 0.1, 0.2 (20 mU/ml) mg/ml, respectively. The reaction mixtures were prepared so that the final concentration of Tyr was 1 mM, and the final concentrations of the other amino acids were 5 mM. As for the hydroxylamine concentration, it was added at a final concentration of 1000 mM for all the cases. Further, presence or absence of pyrophosphate production was also verified for the Thermus-derived MetRS and TyrRS by using the AARS activity measurement method described in 10. and standard solutions of the various amino acids as test samples. The reaction mixtures were prepared so that the final concentrations of the amino acids were 200 μM. Hydroxylamine was added at a final concentration of 400 mM.
(§6) Detection or no detection of the activity in the reaction mixtures containing a combination of each AARS and amino acid are shown in Table 2. The symbol + indicates detection of the activity, and − indicates no detection of the activity.

Thermotoga-derived ProRS = molecular target: T2, Thermotoga-derived ProRS (Thermotoga maritima, UniProt Q9WYY4); conditions: Tyr 1 mM, other amino acids 5 mM; hydroxylamine 1000 mM; ProRS 0.2 mg/ml; 30° C.
T2 construct: His tag (C); made in house; host or cells: Escherichia coli BL21 (DE3)
T2 sequence (Q9WYY4 1-577): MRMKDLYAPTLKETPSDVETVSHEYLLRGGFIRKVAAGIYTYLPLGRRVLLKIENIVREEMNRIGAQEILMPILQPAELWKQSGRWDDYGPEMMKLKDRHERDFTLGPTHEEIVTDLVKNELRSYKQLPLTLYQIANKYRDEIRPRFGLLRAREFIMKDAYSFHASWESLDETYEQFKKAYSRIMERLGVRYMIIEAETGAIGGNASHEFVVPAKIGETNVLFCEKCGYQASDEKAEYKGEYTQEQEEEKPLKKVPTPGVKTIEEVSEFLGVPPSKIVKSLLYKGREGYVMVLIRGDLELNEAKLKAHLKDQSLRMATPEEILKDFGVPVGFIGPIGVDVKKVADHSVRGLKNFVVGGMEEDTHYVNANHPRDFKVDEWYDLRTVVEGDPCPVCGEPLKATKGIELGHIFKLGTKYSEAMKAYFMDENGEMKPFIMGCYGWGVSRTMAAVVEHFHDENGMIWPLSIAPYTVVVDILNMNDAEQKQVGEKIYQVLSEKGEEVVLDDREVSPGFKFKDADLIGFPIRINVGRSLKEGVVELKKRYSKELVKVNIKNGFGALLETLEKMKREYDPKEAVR
Procedure: as §1, §2, §3, §4, §5, §6

Thermotoga-derived LysRS = molecular target: T3, Thermotoga-derived LysRS (Thermotoga maritima, UniProt Q9X231); conditions: Tyr 1 mM, other amino acids 5 mM; hydroxylamine 1000 mM; LysRS 0.2 mg/ml (3 mU/ml); 30° C.
T3 construct: His tag (C); made in house; host or cells: Escherichia coli BL21 (DE3)
T3 sequence (Q9X231 1-502): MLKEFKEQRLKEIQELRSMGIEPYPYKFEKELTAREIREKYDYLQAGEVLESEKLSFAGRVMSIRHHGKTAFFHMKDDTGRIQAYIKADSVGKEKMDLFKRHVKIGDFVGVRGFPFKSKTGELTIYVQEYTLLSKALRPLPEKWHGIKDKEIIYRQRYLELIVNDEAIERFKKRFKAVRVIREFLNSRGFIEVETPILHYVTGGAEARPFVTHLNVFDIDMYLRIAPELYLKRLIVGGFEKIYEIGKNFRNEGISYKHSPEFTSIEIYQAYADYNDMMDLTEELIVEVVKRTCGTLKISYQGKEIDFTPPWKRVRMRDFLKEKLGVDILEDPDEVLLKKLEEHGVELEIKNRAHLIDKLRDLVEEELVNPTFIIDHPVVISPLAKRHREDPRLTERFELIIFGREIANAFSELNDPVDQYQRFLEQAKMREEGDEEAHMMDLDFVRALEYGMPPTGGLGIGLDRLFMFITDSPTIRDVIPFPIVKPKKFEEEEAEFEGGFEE
Procedure: as §1, §2, §3, §4, §5, §6

Thermotoga-derived TrpRS = molecular target: T4, Thermotoga-derived TrpRS (Thermotoga maritima, UniProt Q9WYW2); conditions: Tyr 1 mM, other amino acids 5 mM; hydroxylamine 1000 mM; TrpRS 0.1 mg/ml; 30° C.
T4 construct: His tag (C); made in house; host or cells: Escherichia coli BL21 (DE3)
T4 sequence (Q9WYW2 1-328): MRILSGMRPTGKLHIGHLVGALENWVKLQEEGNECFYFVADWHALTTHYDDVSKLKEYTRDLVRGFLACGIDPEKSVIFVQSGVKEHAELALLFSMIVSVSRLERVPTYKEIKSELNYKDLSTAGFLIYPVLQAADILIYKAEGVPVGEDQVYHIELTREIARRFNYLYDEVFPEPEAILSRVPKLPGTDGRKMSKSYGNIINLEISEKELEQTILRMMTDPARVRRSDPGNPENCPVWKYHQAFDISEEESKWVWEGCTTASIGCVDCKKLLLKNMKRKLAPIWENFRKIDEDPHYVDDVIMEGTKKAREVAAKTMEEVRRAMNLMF
Procedure: as §1, §2, §3, §4, §5, §6

T1 sequence (Q9X199 whole entry): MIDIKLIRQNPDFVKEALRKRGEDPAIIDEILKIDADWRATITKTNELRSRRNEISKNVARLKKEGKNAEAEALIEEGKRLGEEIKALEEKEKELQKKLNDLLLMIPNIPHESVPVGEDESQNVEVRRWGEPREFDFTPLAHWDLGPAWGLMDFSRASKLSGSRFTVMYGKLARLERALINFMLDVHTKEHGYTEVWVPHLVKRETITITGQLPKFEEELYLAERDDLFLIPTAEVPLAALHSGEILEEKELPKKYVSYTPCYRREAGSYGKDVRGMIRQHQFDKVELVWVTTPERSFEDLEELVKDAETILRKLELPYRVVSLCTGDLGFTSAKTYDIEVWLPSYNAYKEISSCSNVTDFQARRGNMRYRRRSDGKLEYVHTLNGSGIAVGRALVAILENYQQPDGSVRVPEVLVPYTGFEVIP

Compound	Detection of the activity (pyrophosphate generation), SerRS (Thermotoga-derived SerRS)	Detection of the activity (pyrophosphate generation), ProRS (Thermotoga-derived ProRS)	Detection of the activity (pyrophosphate generation), LysRS (Thermotoga-derived LysRS)	Detection of the activity (pyrophosphate generation), TrpRS (Thermotoga-derived TrpRS)
C[C@H](N)C(=O)O [Ala, L-alanine]	−	−	−	−
N=C(N)NCCC[C@H](N)C(=O)O [Arg, L-arginine]	−	−	−	−
NC(=O)C[C@H](N)C(=O)O [Asn, L-asparagine]	−	−	−	−
N[C@@H](CC(=O)O)C(=O)O [Asp, L-aspartic acid]	−	−	−	−
N[C@@H](CS)C(=O)O [Cys, L-cysteine]	−	−	−	−
NC(=O)CC[C@H](N)C(=O)O [Gln, L-glutamine]	−	−	−	−
N[C@@H](CCC(=O)O)C(=O)O [Glu, L-glutamic acid]	−	−	−	−
NCC(=O)O [Gly, glycine]	−	−	−	−
N[C@@H](Cc1c[nH]cn1)C(=O)O [His, L-histidine]	−	−	−	−
CC[C@H](C)[C@H](N)C(=O)O [Ile, L-isoleucine]	−	−	−	−
CC(C)C[C@H](N)C(=O)O [Leu, L-leucine]	−	−	−	−
NCCCC[C@H](N)C(=O)O [Lys, L-lysine]	−	−	+	−
CSCC[C@H](N)C(=O)O [Met, L-methionine]	−	−	−	−
N[C@@H](Cc1ccccc1)C(=O)O [Phe, L-phenylalanine]	−	−	−	−
O=C(O)[C@@H]1CCCN1 [Pro, L-proline]	−	+	−	−
N[C@@H](CO)C(=O)O [Ser, L-serine]	+	−	−	−
C[C@@H](O)[C@H](N)C(=O)O [Thr, L-threonine]	−	−	−	−
N[C@@H](Cc1c[nH]c2ccccc12)C(=O)O [Trp, L-tryptophan]	−	−	−	+
N[C@@H](Cc1ccc(O)cc1)C(=O)O [Tyr, L-tyrosine]	−	−	−	−
CC(C)[C@H](N)C(=O)O [Val, L-valine]	−	−	−	−
